“Also recorded” adds a separate entry of the source.

The subject of this assay is rat valproic acid-exposed autism model. The experiment in a line: Sociability test (3 chamber) in rat embryonic valproic acid-exposed autism model. The format is in vivo. Particulars: compound A 0.2 or 1 mg/kg orally once a day for 14 days from 3 weeks of age; male Sprague-Dawley offspring exposed to VPA 500 mg/kg i.p.; test at 5 weeks of age; FIG. 1. How it is done: Rat embryonic valproic acid-exposed autism model was used for the test. Sodium valproate (VPA) 500 mg/kg (mpk) was intraperitoneally administered to Sprague-Dawley pregnant rats on the 12.5th day in the embryonic stage. The offspring was weaned on the 21st day after birth, and only the male rat was used for the experiment. Compound A (0.2 or 1 mg/kg) was orally administered once a day at 18 o'clock for 14 days from 3 weeks of age after weaning and a behavioral test was conducted at 5 weeks of age. As unknown rat (Stranger rat), a purchased male rat of the same strain and the same week of age was used with no contact with the rat to be tested (test rat) until the day of the test.
In the experiment, a black plastic 3 chamber experimental apparatus (90×60×34 cm, each chamber 30×60×34 cm) was used. […]
On the day of the test, the rats to be tested and unknown rats were acclimated to the test environment for 1 hour or more and then the test was started. […] The sniffing to each cylinder (action of sniffing an object or an animal) was visually measured for 10 min. A sniffing index, which is an indicator of interest to other animal, was calculated by the following formula based on the sniffing time to each cylinder for 10 min. […]

Take `CC(=O)NCC[C@@H]1CCc2ccc3nc(C)oc3c21` [compound A, (S)—N-[2-(2-methyl-7,8-dihydro-6H-indeno[5,4-d][1,3]oxazol-8-yl)ethyl]acetamide]: the “effect on social disorder / social performance (Sniffing index, Sniffing time to object)” value is listed as “significant (# P≤0.025) improvement effect on social performance; also recorded: showed effectiveness on the social disorder”.

The values above are taken from US10759768B2, “Prophylactic or therapeutic agent for autism spectrum disorder” (priority 2016, dated 2020).
